Measured values as given in patent publication US20220281848A1, “PYRAZOLE-SUBSTITUTED PYRROLIDINONES AS HERBICIDES” (FMC Corporation, priority 2019, published 2022).

How the values were obtained:
Assay type in all cases: in vivo
Conditions in all cases: after 13 d
[1] = tested on: velvetleaf (Abutilon theophrasti, ABUTH); assay: Test A post-emergence, velvetleaf
Procedure, shortened: (§1)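 Post-emergence spray at 8 d after sowing; doses 15.625, 62.5 or 250 g/ha in acetone/water 50:50 + 0.5% Tween 20. Glasshouse 24/16 °C, 14 h light, 65% RH, watered twice daily. Visual damage rating 0–100 at 13 d.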

[2] = tested on: barnyardgrass (Echinochloa crus-galli, ECHCG); assay: Test A pre-emergence, barnyardgrass
Procedure, shortened: (§2)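 Values are percent plant damage 13 d after a pre-emergence spray (15.625, 62.5 or 250 g/ha; acetone/water with 0.5% Tween 20) applied to pots one day post-sowing, under glasshouse conditions of 24/16° C. and twice-daily watering.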

[3] = tested on: barnyardgrass (Echinochloa crus-galli, ECHCG); assay: Test A post-emergence, barnyardgrass
Procedure, shortened: as §1

[4] = tested on: ivy-leaved morning glory (Ipomoea hederacea, IPOHE); assay: Test A pre-emergence, ivy-leaved morning glory
Procedure, shortened: as §2

[5] = tested on: velvetleaf (Abutilon theophrasti, ABUTH); assay: Test A pre-emergence, velvetleaf
Procedure, shortened: as §2

[6] = tested on: ivy-leaved morning glory (Ipomoea hederacea, IPOHE); assay: Test A post-emergence, ivy-leaved morning glory
Procedure, shortened: as §1

corn (Zea mays, ZEAMX) [7] = assay: Test A post-emergence, corn
Procedure, shortened: as §1

corn (Zea mays, ZEAMX) [8] = assay: Test A pre-emergence, corn
Procedure, shortened: as §2

[9] = tested on: redroot pigweed (Amaranthus retroflexus, AMARE); assay: Test A post-emergence, redroot pigweed
Procedure, shortened: as §1

[10] = tested on: giant foxtail (Setaria faberi, SETFA); assay: Test A post-emergence, giant foxtail
Procedure, shortened: as §1

[11] = tested on: giant foxtail (Setaria faberi, SETFA); assay: Test A pre-emergence, giant foxtail
Procedure, shortened: as §2

[12] = tested on: redroot pigweed (Amaranthus retroflexus, AMARE); assay: Test A pre-emergence, redroot pigweed
Procedure, shortened: as §2

CN1CC(c2nn(C)c(Cl)c2Br)C(C(=O)Nc2ccc(F)cc2F)C1=O (racemic) [Compound 30]
damage to plant (100=total damage; 0=no damage) ABUTH ([1]; Post-Emergence at 15.625 g/ha): 0 | damage to plant (100=total damage; 0=no damage) ABUTH ([1]; Post-Emergence at 62.5 g/ha): 0 | damage to plant (100=total damage; 0=no damage) ABUTH ([1]; Post-Emergence at 250 g/ha): 0 | damage to plant (100=total damage; 0=no damage) ECHCG ([2]; Pre-Emergence at 15.625 g/ha): 0 | damage to plant (100=total damage; 0=no damage) ECHCG ([2]; Pre-Emergence at 62.5 g/ha): 10 | damage to plant (100=total damage; 0=no damage) ECHCG ([2]; Pre-Emergence at 250 g/ha): 20 | damage to plant (100=total damage; 0=no damage) ECHCG ([3]; Post-Emergence at 15.625 g/ha): 0 | damage to plant (100=total damage; 0=no damage) ECHCG ([3]; Post-Emergence at 62.5 g/ha): 20 | damage to plant (100=total damage; 0=no damage) ECHCG ([3]; Post-Emergence at 250 g/ha): 50 | damage to plant (100=total damage; 0=no damage) IPOHE ([4]; Pre-Emergence at 15.625 g/ha): 0 | damage to plant (100=total damage; 0=no damage) IPOHE ([4]; Pre-Emergence at 62.5 g/ha): 0 | damage to plant (100=total damage; 0=no damage) IPOHE ([4]; Pre-Emergence at 250 g/ha): 10 | damage to plant (100=total damage; 0=no damage) ABUTH ([5]; Pre-Emergence at 15.625 g/ha): 0 | damage to plant (100=total damage; 0=no damage) ABUTH ([5]; Pre-Emergence at 62.5 g/ha): 0 | damage to plant (100=total damage; 0=no damage) ABUTH ([5]; Pre-Emergence at 250 g/ha): 0 | damage to plant (100=total damage; 0=no damage) IPOHE ([6]; Post-Emergence at 15.625 g/ha): 0 | damage to plant (100=total damage; 0=no damage) IPOHE ([6]; Post-Emergence at 62.5 g/ha): 0 | damage to plant (100=total damage; 0=no damage) IPOHE ([6]; Post-Emergence at 250 g/ha): 0 | damage to plant (100=total damage; 0=no damage) ZEAMX (corn (Zea mays, ZEAMX) [7]; Post-Emergence at 15.625 g/ha): 0 | damage to plant (100=total damage; 0=no damage) ZEAMX (corn (Zea mays, ZEAMX) [7]; Post-Emergence at 62.5 g/ha): 0 | damage to plant (100=total damage; 0=no damage) ZEAMX (corn (Zea mays, ZEAMX) [7]; Post-Emergence at 250 g/ha): 0 | damage to plant (100=total damage; 0=no damage) ZEAMX (corn (Zea mays, ZEAMX) [8]; Pre-Emergence at 15.625 g/ha): 0 | damage to plant (100=total damage; 0=no damage) ZEAMX (corn (Zea mays, ZEAMX) [8]; Pre-Emergence at 62.5 g/ha): 0 | damage to plant (100=total damage; 0=no damage) ZEAMX (corn (Zea mays, ZEAMX) [8]; Pre-Emergence at 250 g/ha): 0 | damage to plant (100=total damage; 0=no damage) AMARE ([9]; Post-Emergence at 15.625 g/ha): 0 | damage to plant (100=total damage; 0=no damage) AMARE ([9]; Post-Emergence at 62.5 g/ha): 0 | damage to plant (100=total damage; 0=no damage) AMARE ([9]; Post-Emergence at 250 g/ha): 10 | damage to plant (100=total damage; 0=no damage) SETFA ([10]; Post-Emergence at 15.625 g/ha): 10 | damage to plant (100=total damage; 0=no damage) SETFA ([10]; Post-Emergence at 62.5 g/ha): 20 | damage to plant (100=total damage; 0=no damage) SETFA ([10]; Post-Emergence at 250 g/ha): 50 | damage to plant (100=total damage; 0=no damage) SETFA ([11]; Pre-Emergence at 15.625 g/ha): 0 | damage to plant (100=total damage; 0=no damage) SETFA ([11]; Pre-Emergence at 62.5 g/ha): 0 | damage to plant (100=total damage; 0=no damage) SETFA ([11]; Pre-Emergence at 250 g/ha): 10 | damage to plant (100=total damage; 0=no damage) AMARE ([12]; Pre-Emergence at 15.625 g/ha): 0 | damage to plant (100=total damage; 0=no damage) AMARE ([12]; Pre-Emergence at 62.5 g/ha): 0 | damage to plant (100=total damage; 0=no damage) AMARE ([12]; Pre-Emergence at 250 g/ha): 10
